Experimental data reported in publication PMC7897990, “TriTOX: A novel Trichomonas vaginalis assay platform for high-throughput screening of compound libraries” (International Journal for Parasitology: Drugs and Drug …, 2021).
Read-outs that look alike come from different tables or passages of the source.

Legend:
[1] = system: Trichomonas vaginalis G3 trophozoites
[2] = system: nontumorigenic neonatal foreskin fibroblast (NFF) cell line
[3] = replicate 1; parasite screen at 1 µg/mL
[4] = replicate 2; parasite screen at 1 µg/mL
[5] = HTS single concentration, parasite screen 1 µg/mL, replicate 1
[6] = HTS single concentration, parasite screen 1 µg/mL, replicate 2
[7] = NFF_NS1 screen 5 µg/mL, single concentration
[8] = parasite screen at 1 µg/mL, replicate 1
[9] = parasite screen at 1 µg/mL, replicate 2
[10] = NFF_NS1 screen at 5 µg/mL, NFF cells

SMILES | T.vaginalis_%inb_Rep1 [1, 8] [%] | T.vaginalis_%inb_Rep2 [1, 9] [%] | NFF_Activity [2, 10] | also measured
CCC(C)C(=O)OC1CCC=C2C=CC(C)C(CCC3CC(O)CC(=O)O3)C21 (stereo not drawn) [BIA-M1209] |  |  |  | T.vaginalis_%inb_Rep1 [1, 3]: 12.32%; T.vaginalis_%inb_Rep2 [1, 4]: 10.01%; NFF_Activity ([2]; NFF cells, screen at 5 µg/mL): I (otherwise these were reported as inactive (I))
COc1cccc2oc3c4c(cc(OC)c3c(=O)c12)OC1OC=CC41 (stereo not drawn) [BIA-M1214] |  |  |  | T.vaginalis_%inb_Rep1 [1, 3]: 13.54%; T.vaginalis_%inb_Rep2 [1, 4]: 12.19%; NFF_Activity ([2]; NFF cells, screen at 5 µg/mL): I (otherwise these were reported as inactive (I))
CC=CC(C)=CC(C)C(=O)CC(O)CC1CC(=O)NC(=O)C1 (stereo not drawn) [BIA-M1404] |  |  |  | T.vaginalis_%inb_Rep1 [1, 5]: 18.76%; T.vaginalis_%inb_Rep2 [1, 6]: 13.41%; NFF_Activity [2, 7]: I (otherwise these were reported as inactive (I))
C=C1c2c(Cl)ccc(O)c2C(O)=C2C(=O)C3(O)C(O)=C(C(N)=O)C(=O)C(N(C)C)C3C(O)C12 (stereo not drawn) [BIA-M1464] |  |  |  | T.vaginalis_%inb_Rep1 [1, 3]: 17.14%; T.vaginalis_%inb_Rep2 [1, 4]: 5.39%; NFF_Activity ([2]; NFF cells, screen at 5 µg/mL): I (otherwise these were reported as inactive (I))
C=C1c2cccc(O)c2C(O)=C2C(=O)C3(O)C(O)=C(C(N)=O)C(=O)C(N(C)C)C3C(O)C12 (stereo not drawn) [BIA-M1467] |  |  |  | T.vaginalis_%inb_Rep1 [1, 3]: 12.78%; T.vaginalis_%inb_Rep2 [1, 4]: 4.43%; NFF_Activity ([2]; NFF cells, screen at 5 µg/mL): I (otherwise these were reported as inactive (I))
Cc1cccc(O)c1C(=O)O [BIA-M1655] |  |  |  | T.vaginalis_%inb_Rep1 [1, 3]: 11.00%; T.vaginalis_%inb_Rep2 [1, 4]: 14.69%; NFF_Activity ([2]; NFF cells, screen at 5 µg/mL): I (otherwise these were reported as inactive (I))
Cc1cc(O)c(C)c(O)c1C(=O)O [BIA-M1661] |  |  |  | T.vaginalis_%inb_Rep1 [1, 3]: 12.78%; T.vaginalis_%inb_Rep2 [1, 4]: 12.06%; NFF_Activity ([2]; NFF cells, screen at 5 µg/mL): A (active (A) compounds having >25% inhibitory activity)
C=C(C)[C@@H]1CC[C@]2(C(=O)OC)CC[C@]3(C)[C@H](CC[C@@H]4[C@@]5(C)CC[C@H](O)C(C)(C)[C@@H]5CC[C@]43C)[C@@H]12 [BIA-M1757] |  |  |  | T.vaginalis_%inb_Rep1 [1, 5]: 14.81%; T.vaginalis_%inb_Rep2 [1, 6]: 16.56%; NFF_Activity [2, 7]: I (otherwise these were reported as inactive (I))
CCCCC(C)C=C(C)C=C(C)C(=O)NC1=CC(O)(C=CC=CC=CC(=O)NC2=C(O)CCC2=O)C2OC2C1=O (stereo not drawn) [BIA-M1905] |  |  |  | T.vaginalis_%inb_Rep1 [1, 3]: 10.60%; T.vaginalis_%inb_Rep2 [1, 4]: 12.76%; NFF_Activity ([2]; NFF cells, screen at 5 µg/mL): I (otherwise these were reported as inactive (I))
COc1ccc2[nH]c3c(C)c4ccncc4c(C)c3c2c1 [BIA-M1952] |  |  |  | T.vaginalis_%inb_Rep1 [1, 3]: 5.30%; T.vaginalis_%inb_Rep2 [1, 4]: 7.25%; NFF_Activity ([2]; NFF cells, screen at 5 µg/mL): A (active (A) compounds having >25% inhibitory activity)
CN[C@@H]1C[C@H]2O[C@@](C)([C@@H]1OC)n1c3ccccc3c3c4c(c5c6ccccc6n2c5c31)C(=O)NC4=O [BIA-O1137] |  |  |  | T.vaginalis_%inb_Rep1 [1, 5]: 63.59%; T.vaginalis_%inb_Rep2 [1, 6]: 75.50%; NFF_Activity [2, 7]: A (active (A) compounds having >25% inhibitory activity)
CO[C@H]1[C@H](O)[C@@H](O)[C@H](n2c3c(Cl)cccc3c3c4c(c5c6cccc(Cl)c6[nH]c5c32)C(=O)NC4=O)O[C@@H]1CO [BIA-R1075] | 10.49 | 13.95 | I (otherwise these were reported as inactive (I)) | 
COc1c(O)cc2cc(C)oc(=O)c2c1O [BIA-R1077] | 14.76 | 13.92 | I (otherwise these were reported as inactive (I)) | 
CCCCCCCCCCCCCCCC(=O)C1=C(O)C(CO)OC1=O (stereo not drawn) [BIA-R1082] | 10.55 | 12.25 | I (otherwise these were reported as inactive (I)) | 
C=CC(C)(C)[C@@]12C[C@H]3C(=O)N/C(=C/c4c[nH]cn4)C(=O)N3[C@@H]1Nc1ccccc12 [BIA-R1083] | 13.69 | 4.87 | A (active (A) compounds having >25% inhibitory activity) | 
C[C@@H]1C[C@H]2O[C@@H]2/C=C\C=C\C(=O)Cc2c(Cl)c(O)cc(O)c2C(=O)O1 [BIA-R1148] | 12.83 | 10.33 | A (active (A) compounds having >25% inhibitory activity) | 
CO[C@H]1C[C@@H]2CC[C@@H](C)[C@@](O)(O2)C(=O)C(=O)N2CCCC[C@H]2C(=O)O[C@H]([C@H](C)C[C@@H]2CC[C@@H](O)[C@H](OC)C2)CC(=O)[C@H](C)/C=C(\C)[C@@H](O)[C@@H](OC)C(=O)[C@H](C)C[C@H](C)/C=C/C=C/C=C/1C [BIA-R1183] | 10.28 | 12.55 | I (otherwise these were reported as inactive (I)) | 
CC[C@H]1OC(=O)[C@H](C)[C@@H](O[C@H]2C[C@@](C)(OC)[C@@H](O)[C@H](C)O2)[C@H](C)[C@@H](O[C@@H]2O[C@H](C)C[C@H](N(C)C)[C@H]2O)[C@](C)(O)C[C@@H](C)/C(=N\OCOCCOC)[C@H](C)[C@@H](O)[C@]1(C)O [BIA-R1315] | 1.36 | 5.85 | I (otherwise these were reported as inactive (I)) | 
CO[C@H]1C[C@@H]2CC[C@@H](C)[C@@](O)(O2)C(=O)C(=O)N2CCCC[C@H]2C(=O)O[C@H]([C@H](C)C[C@@H]2CC[C@@H](OP(C)(C)=O)[C@H](OC)C2)CC(=O)[C@H](C)/C=C(\C)[C@@H](O)[C@@H](OC)C(=O)[C@H](C)C[C@H](C)/C=C/C=C/C=C/1C [BIA-R1450] | 8.81 | 19.01 | I (otherwise these were reported as inactive (I)) | 
CN(C)[C@@H]1C(O)=C(C(=O)NCN2CCCC2)C(=O)[C@@]2(O)C(O)=C3C(=O)c4c(O)cccc4[C@@](C)(O)[C@H]3C[C@@H]12 [BIA-R1460] | 13.95 | 12.12 | I (otherwise these were reported as inactive (I)) | 
C=CC1(C)CC(OC(=O)CSC2CC3CCC(C2)N3C)C2(C)C(C)CCC3(CCC(=O)C32)C(C)C1O (stereo not drawn) [BIA-R1491] | 10.45 | 11.55 | I (otherwise these were reported as inactive (I)) | 
Cc1cc2nc3c(=O)[nH]c(=O)nc-3n(C[C@H](O)[C@H](O)[C@H](O)CO)c2cc1N(C)C [BIA-R1535] | 11.33 | 14.32 | I (otherwise these were reported as inactive (I)) | 
C/C=C/c1cc2c(c(=O)o1)[C@H](O)[C@@H](O)[C@H](C)O2 [BIA-R1896] | 13.39 | 5.58 | I (otherwise these were reported as inactive (I)) | 
CCCCCCCCCCCC[C@@H](C(=O)O)[C@H](C)C(=O)O [BIA-R1904] | 13.79 | 5.71 | I (otherwise these were reported as inactive (I)) | 
COC(=O)C1=CO[C@@H](C)[C@@H]2CN3CCc4c([nH]c5cc(OC)c(OC)cc45)[C@H]3C[C@H]12 [BIA-R1946] | 11.06 | 13.59 | I (otherwise these were reported as inactive (I)) | 
CN[C@@H]1C[C@H]2O[C@@](C)([C@@H]1OC)n1c3ccccc3c3c4c(c5c6ccccc6n2c5c31)C(=O)NC4 [BIA-S1086] | 72.52 | 83.24 | A (active (A) compounds having >25% inhibitory activity) | 
COC1=C(N)C(=O)c2nc(-c3nc(C(=O)O)c(C)c(-c4cccc(OC)c4O)c3N)ccc2C1=O [BIA-S1088] |  |  |  | T.vaginalis_%inb_Rep1 [1, 5]: 77.76%; T.vaginalis_%inb_Rep2 [1, 6]: 92.91%; NFF_Activity [2, 7]: A (active (A) compounds having >25% inhibitory activity)
